# Laboratory results taken from ChEMBL document CHEMBL3886330, “Substituted azoanthracene derivatives and intermediates for preparation thereof” (2015).
# Molecular target: Glucagon-like peptide 1 receptor (Homo sapiens, UniProt P43220)
# Assay type: functional
# Chain of Glucagon-like peptide 1 receptor (P43220 whole entry): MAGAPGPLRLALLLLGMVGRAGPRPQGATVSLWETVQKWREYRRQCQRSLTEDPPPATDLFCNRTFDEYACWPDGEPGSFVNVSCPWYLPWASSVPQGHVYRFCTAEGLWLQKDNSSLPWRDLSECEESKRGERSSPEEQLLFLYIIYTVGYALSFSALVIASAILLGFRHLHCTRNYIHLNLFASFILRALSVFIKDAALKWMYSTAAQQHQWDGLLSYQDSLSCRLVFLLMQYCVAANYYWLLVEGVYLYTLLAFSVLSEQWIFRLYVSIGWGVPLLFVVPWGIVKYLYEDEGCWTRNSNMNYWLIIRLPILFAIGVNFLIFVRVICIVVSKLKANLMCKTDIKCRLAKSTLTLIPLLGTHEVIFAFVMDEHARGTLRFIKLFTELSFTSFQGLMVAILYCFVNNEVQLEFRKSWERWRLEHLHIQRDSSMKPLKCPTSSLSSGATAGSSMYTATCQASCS
row,SMILES,EC50
1,CC[C@@H](NC(=O)N1Cc2cc3c(cc2C[C@H]1C(=O)N[C@@H](Cc1ccc(-c2ccnc(C)c2C)cc1)C(=O)O)OC[C@H](c1ccc(OCc2ccc(Cl)c(Cl)c2)cc1)O3)c1ccccc1,126 nM
2,CC[C@@H](c1ccccc1)N1Cc2cc3c(cc2C[C@H]1C(=O)N[C@@H](Cc1ccc(-c2ccnc(F)c2)cc1)C(=O)O)OC[C@H](c1ccc(OCc2ccc(Cl)c(Cl)c2)cc1)O3,222 nM
3,CCNc1nc(C)c(S(=O)(=O)N2Cc3cc4c(cc3C[C@H]2C(=O)N[C@@H](Cc2ccc(-c3ccc(Cl)cc3)cc2)C(=O)O)OCC(c2ccc(OCc3ccc(Cl)c(Cl)c3)cc2)O4)s1 (stereo partly specified),264 nM
4,Cc1nccc(-c2ccc(C[C@H](NC(=O)[C@@H]3Cc4cc5c(cc4CN3C(=O)OCc3ccccc3)O[C@@H](c3ccc(OCc4ccc(Cl)c(Cl)c4)cc3)CO5)C(=O)O)cc2)c1C,23 nM
5,CCNc1nc(C)c(S(=O)(=O)N2Cc3cc4c(cc3C[C@H]2C(=O)N[C@@H](Cc2ccc(-c3ccc(F)cc3)cc2)C(=O)O)OCC(c2ccc(OCc3ccc(Cl)c(Cl)c3)cc2)O4)s1 (stereo partly specified),131 nM
6,N#Cc1ccc(-c2ccc(C[C@H](NC(=O)[C@@H]3Cc4cc5c(cc4CN3Cc3ccccc3C#N)OC(c3ccc(OCc4ccc(Cl)c(Cl)c4)cc3)CO5)C(=O)O)cc2)cc1 (stereo partly specified),657 nM
7,CCCNc1nc(C)c(S(=O)(=O)N2Cc3cc4c(cc3C[C@H]2C(=O)N[C@@H](Cc2ccc(-c3ccc(C#N)cc3)cc2)C(=O)O)OCC(c2ccc(OCc3ccc(Cl)c(Cl)c3)cc2)O4)s1 (stereo partly specified),67 nM
8,Cc1nccc(-c2ccc(C[C@H](NC(=O)[C@@H]3Cc4cc5c(cc4CN3C(=O)N[C@H](C)c3ccccc3)O[C@@H](c3ccc(OCc4ccc(Cl)cc4Cl)cc3)CO5)C(=O)O)cc2)c1C,133 nM
9,C[C@@H](NC(=O)N1Cc2cc3c(cc2C[C@H]1C(=O)N[C@@H](Cc1ccc(-c2ccc(C#N)cc2)cc1)C(=O)O)OC[C@H](c1ccc(OCc2ccc(Cl)c(Cl)c2)cc1)O3)c1ccccc1,288 nM
10,Cc1nccc(Oc2ccc(C[C@H](NC(=O)[C@@H]3Cc4cc5c(cc4CN3C(=O)N[C@H](C)c3ccccc3)O[C@@H](c3ccc(OCc4ccc(Cl)c(Cl)c4)cc3)CO5)C(=O)O)cc2)c1C,115 nM
11,CC[C@@H](c1ccccc1)N1Cc2cc3c(cc2C[C@H]1C(=O)N[C@@H](Cc1ccc(-c2ccc(C#N)nc2)cc1)C(=O)O)OC[C@H](c1ccc(OCc2ccc(Cl)c(Cl)c2)cc1)O3,154 nM
12,CC(=O)Nc1nc(C)c(S(=O)(=O)N2Cc3cc4c(cc3C[C@H]2C(=O)N[C@@H](Cc2ccc(-c3ccnc(C)c3C)cc2)C(=O)O)OC[C@H](c2ccc(OCc3ccc(Cl)c(Cl)c3)cc2)O4)s1,24 nM
13,Cc1nccc(Oc2ccc(C[C@H](NC(=O)[C@@H]3Cc4cc5c(cc4CN3C(=O)OCC(C)C)O[C@@H](c3ccc(OCc4ccc(Cl)c(Cl)c4)cc3)CO5)C(=O)O)cc2)c1C,311 nM
14,Cc1nc(NC2CCCC2)sc1S(=O)(=O)N1Cc2cc3c(cc2C[C@H]1C(=O)N[C@@H](Cc1ccc(-c2ccc(C#N)cc2)cc1)C(=O)O)OCC(c1ccc(OCc2ccc(Cl)c(Cl)c2)cc1)O3 (stereo partly specified),70 nM
15,CC[C@@H](c1ccccc1)N1Cc2cc3c(cc2C[C@H]1C(=O)N[C@@H](Cc1ccc(-c2ccnc(C)c2)cc1)C(=O)O)OC[C@H](c1ccc(OCc2ccc(Cl)c(Cl)c2)cc1)O3,20 nM
16,CCCc1cc(-c2ccc(C[C@H](NC(=O)[C@@H]3Cc4cc5c(cc4CN3[C@@H](CC)c3ccccc3)O[C@@H](c3ccc(OCc4ccc(Cl)c(Cl)c4)cc3)CO5)C(=O)O)cc2)ccn1,83 nM
17,Cc1nc(C(=O)N2Cc3cc4c(cc3C[C@H]2C(=O)N[C@@H](Cc2ccc(-c3ccc(C#N)cc3)cc2)C(=O)O)OC[C@H](c2ccc(OCc3ccc(Cl)c(Cl)c3)cc2)O4)c(C)o1,156 nM
18,CCc1cc(-c2ccc(C[C@H](NC(=O)[C@@H]3Cc4cc5c(cc4CN3[C@@H](CC)c3ccccc3)O[C@@H](c3ccc(OCc4ccc(Cl)c(Cl)c4)cc3)CO5)C(=O)O)cc2)ccn1,13 nM
19,Cc1ccc(COc2ccc(C3COc4cc5c(cc4O3)CN(S(=O)(=O)c3sc(N)nc3C)[C@H](C(=O)N[C@@H](Cc3ccc(-c4ccc(C#N)cc4)cc3)C(=O)O)C5)cc2)cc1Cl (stereo partly specified),434 nM
20,N#Cc1ccc(-c2ccc(C[C@H](NC(=O)[C@@H]3Cc4cc5c(cc4CN3C(=O)c3ccccc3)OC(c3ccc(OCc4ccc(Cl)c(Cl)c4)cc3)CN5)C(=O)O)cc2)cc1 (stereo partly specified),410 nM
21,Cc1nc(NCC2CC2)sc1S(=O)(=O)N1Cc2cc3c(cc2C[C@H]1C(=O)N[C@@H](Cc1ccc(-c2ccc(C#N)cc2)cc1)C(=O)O)OCC(c1ccc(OCc2ccc(Cl)c(Cl)c2)cc1)O3 (stereo partly specified),75 nM

# Next, values leading:
row,EC50,SMILES
1,87 nM,Cc1nccc(-c2ccc(C[C@H](NC(=O)[C@@H]3Cc4cc5c(cc4CN3C(=O)OCC(C)(C)C)O[C@@H](c3ccc(OCc4ccc(Cl)c(Cl)c4)cc3)CO5)C(=O)O)cc2)c1C
2,22 nM,Cc1nccc(-c2ccc(C[C@H](NC(=O)[C@@H]3Cc4cc5c(cc4CN3C(=O)c3cccc(Cl)c3)O[C@@H](c3ccc(OCc4ccc(Cl)c(Cl)c4)cc3)CO5)C(=O)O)cc2)c1C
3,96 nM,Cc1nccc(-c2ccc(C[C@H](NC(=O)[C@@H]3Cc4cc5c(cc4CN3C(=O)Nc3ccc(Cl)cc3)O[C@@H](c3ccc(OCc4ccc(Cl)c(Cl)c4)cc3)CO5)C(=O)O)cc2)c1C
4,64 nM,CCCCOC(=O)N1Cc2cc3c(cc2C[C@H]1C(=O)N[C@@H](Cc1ccc(-c2ccnc(C)c2C)cc1)C(=O)O)OC[C@H](c1ccc(OCc2ccc(Cl)c(Cl)c2)cc1)O3
5,166 nM,Cc1nccc(-c2ccc(C[C@H](NC(=O)[C@@H]3Cc4cc5c(cc4CN3C(=O)c3cnccn3)O[C@@H](c3ccc(OCc4ccc(Cl)c(Cl)c4)cc3)CO5)C(=O)O)cc2)c1C
6,42 nM,Cc1nc(C(=O)N2Cc3cc4c(cc3C[C@H]2C(=O)N[C@@H](Cc2ccc(-c3ccnc(C)c3C)cc2)C(=O)O)OC[C@H](c2ccc(OCc3ccc(Cl)c(Cl)c3)cc2)O4)c(C(F)(F)F)o1
7,177 nM,Cc1nc(C(=O)N2Cc3cc4c(cc3C[C@H]2C(=O)N[C@@H](Cc2ccc(Oc3ccnc(C)c3C)cc2)C(=O)O)OC[C@H](c2ccc(OCc3ccc(Cl)c(Cl)c3)cc2)O4)co1
8,267 nM,Cc1nccc(-c2ccc(C[C@H](NC(=O)[C@@H]3Cc4cc5c(cc4CN3S(C)(=O)=O)O[C@@H](c3ccc(OCc4ccc(Cl)c(Cl)c4)cc3)CO5)C(=O)O)cc2)c1C
9,172 nM,Cc1nccc(-c2ccc(C[C@H](NC(=O)[C@@H]3Cc4cc5c(cc4CN3C(=O)c3oc4ccccc4c3C)O[C@@H](c3ccc(OCc4ccc(Cl)c(Cl)c4)cc3)CO5)C(=O)O)cc2)c1C
10,73 nM,Cc1nccc(-c2ccc(C[C@H](NC(=O)[C@@H]3Cc4cc5c(cc4CN3C(=O)N(C(C)C)C(C)C)O[C@@H](c3ccc(OCc4ccc(Cl)c(Cl)c4)cc3)CO5)C(=O)O)cc2)c1C
